According to article PMC7279002, “Novel 3′-Substituted-1′,2′,4′-Oxadiazole Derivatives of 18βH-Glycyrrhetinic Acid and Their O-Acylated Amidoximes: Synthesis and Evaluation of Antitumor and Anti-Inflammatory Potential In Vitro and In Vivo” (International Journal of Molecular Sciences, 2020):
Where two headings read alike, the source gives them in different places.

Experiments:
[1] = system: carrageenan-induced paw edema; experiment: Carrageenan-induced paw edema; format: in vivo, ICR mice
Method: To induce paw edema, ICR mice were injected with 1% carrageenan (50 μL) on the plantar side of the right hind paw. […] Mice were sacrificed 5 h after induction of paw edema. The percent of edema weight in carrageenan-injected compound-treated groups in comparison to that in vehicle-treated control group was calculated according to the formula: % Edema=(M1−M2/M2)^compound/∑n(M1−M2/M2)^vehicle×n×100%, where M1 is the weight of the paw with carrageenan-induced edema; M2 is the weight of the intact paws; compound and vehicle correspond to the compound- and vehicle-treated phlogogen-injected mice, respectively; and n is the number of mice in the control group (n = 9). Furthermore, paw material was collected for subsequent histological analysis.
For histological analysis, the specimens of intact and edema paws from each animal were dehydrated in ascending ethanol and xylol and embedded in HistoMix paraffin (BioVitrum, Russia). Paraffin sections (5 μm) were sliced on a Microm HM 355S microtome (Thermo Fisher Scientific, Waltham, MA, USA) and stained with hematoxylin and eosin. Images were obtained using an Axiostar Plus microscope equipped with an Axiocam MRc5 digital camera (Zeiss, Oberkochen, Germany) at ×100 and ×400 magnifications.

[2] = system: murine melanoma B16; experiment: MTT cytotoxicity assay, 48 h; format: cell-based; settings: Mus musculus; MTT, 48 h
Method: (§1) On the first step of the biological evaluation of novel GA derivatives 3a-h, 4a-h, and 5a-h, we analyzed their cytotoxicity in a panel of cultured mammalian cells, including human cervical carcinoma HeLa and KB-3-1, human duodenal carcinoma HuTu-80, human lung adenocarcinoma A549, murine melanoma B16 cell lines, and nontransformed human fibroblasts hFF3. The cells were treated with derivatives for 48 h and cell viability was evaluated by 3-(4, 5-dimethylthiazol-2-yl)-2, 5-diphenyltetrazolium bromide (MTT) assay. Since the studied compounds contain two types of functional groups at position 3-acetoxy- or the hydroxyl-group, 3-acetoxy-GA 1 and GA-Me were used as references. Additionally, hierarchical clustering of cytotoxic data was carried out in order to reveal groups of compounds with similar cytotoxic profiles (Figure 2A).
(§2) Human cervical carcinoma HeLa and KB-3-1 cells, human duodenal carcinoma HuTu-80 cells, and human lung adenocarcinoma A549 cells were obtained from the Russian Culture Collection (Institute of Cytology, RAS, St. Petersburg, Russia). Melanoma B16-F10 (hereafter, melanoma B16) cells were obtained from the Cell Culture Bank of the Blokhin National Medical Oncology Research Center (Moscow, Russia). Nonmalignant fibroblasts hFF3 and RAW264.7 macrophages were kindly provided by Dr. Olga A. Koval (Institute of Chemical Biology and Fundamental Medicine, SB RAS, Novosibirsk, Russia) and Prof. Dmitry Kuprash (Engelhardt Institute of Molecular Biology, RAS, Moscow, Russia), respectively. The cells were cultured in DMEM (Sigma-Aldrich Inc., St. Louis, MO, USA) supplemented with 10% (v/v) heat-inactivated fetal bovine serum (FBS) (BioloT, St. Petersburg, Russia) and antibiotic–antimycotic solution (100 U/mL penicillin, 100 µg/mL streptomycin, 0.25 µg/mL amphotericin). […] The cells were incubated at 37 °C in a humidified 5% CO2-containing air atmosphere (hereafter referred to as standard conditions). GA derivatives were dissolved in DMSO (stock solutions: 10 mM) and stored at −20 °C prior to use.
(§3) Cells were seeded in tetra- or pentaplicates in 96-well plates at a density of 10^4 (tumor cells and […] fibroblasts) or 10^5 (RAW264.7 cells) cells per well. Cells were incubated under standard conditions for 24 h, followed by their treatment with the investigated derivatives (0.5–50 µM) or corresponding concentrations of DMSO (control) for a further 48 h (tumor cells and fibroblasts) or 24 h (RAW264.7 cells). At the end of incubation period, 10 µL of MTT solution was added to the cells (final concentration: 0.5 mg/mL) and plates were incubated for an additional 2 h under standard conditions. Then, the MTT-containing medium was aspirated and formazan crystals formed in living cells were solubilized with 100 µL of DMSO. The absorbance of each well was read at test and reference wavelengths of 570 and 620 nm, respectively, on a Multiscan RC plate reader (Thermo LabSystems, Helsinki, Finland). The IC50 values (the concentration of compounds leading to a decrease of A570 to 50% of A570^control) were calculated by extrapolation of the dose–response curves. […] A heatmap of SI values was constructed by Microsoft Excel 2010.

[3] = system: human duodenal carcinoma HuTu-80; experiment: MTT cytotoxicity assay, 48 h; format: cell-based; settings: Homo sapiens, HuTu80; MTT, 48 h; read-out: IC50, µM Duodenum HuTu-80
Method: as §1, §2, §3

[4] = system: nontransformed human fibroblasts hFF3; experiment: MTT cytotoxicity assay, 48 h; format: cell-based; settings: Homo sapiens, HFF-3, read-out: IC50, µM Fibroblast hFF3
Method: as §1, §2, §3

[5] = system: human cervical carcinoma HeLa; experiment: MTT cytotoxicity assay, 48 h; format: cell-based; settings: Homo sapiens, HeLa; MTT, 48 h; read-out: IC50, µM Cervix HeLa
Method: as §1, §2, §3

[6] = system: human cervical carcinoma KB-3-1; experiment: MTT cytotoxicity assay, 48 h; format: cell-based; settings: Homo sapiens, KB 3-1; MTT, 48 h; read-out: IC50, µM Cervix KB-3-1
Method: as §1, §2, §3

[7] = system: human lung adenocarcinoma A549; experiment: MTT cytotoxicity assay, 48 h; format: cell-based; settings: Homo sapiens, A549; MTT, 48 h
Method: as §1, §2, §3

[8] = system: NO synthesis by IFN-γ-induced RAW264.7 cells; experiment: NO production by IFNγ-stimulated macrophages (Griess); format: cell-based, murine; settings: 10–50 µM, 24 h, IFNγ (20 ng/mL)
Method: (§4) RAW264.7 cells were seeded in tetraplicates in 96-well plates at a density of 10^5 cells/well and incubated under standard conditions for 24 h. The cells were treated with murine IFNγ (20 ng/mL) (Gibco, Grand Island, NY, USA) with or without (control) 3d (10–50 µM) for a further 24 h. At the end of the incubation period, the levels of TNF-α and NO in culture medium were measured using murine TNF alpha ELISA (Thermo Scientific, Frederick, MD, USA) and the Griess reagent system (Promega, Madison, WI, USA), respectively, according to manufacturers’ instructions.

[9] = system: murine RAW264.7 macrophages; experiment: MTT cytotoxicity assay, 24 h; format: cell-based; settings: up to 50 µM
Method: as §3

[10] = system: HeLa, KB-3-1, HuTu-80, A549, B16 and hFF3 cells; experiment: MTT cytotoxicity, summary over the panel of cell lines; format: cell-based
Method: as §1, §3

[11] = system: TNFα production by IFN-γ-stimulated RAW264.7 cells; experiment: TNF-α production by IFNγ-stimulated macrophages (ELISA); format: cell-based, murine; settings: 10–50 µM, 24 h, IFNγ (20 ng/mL)
Method: as §4

[12] = system: carrageenan-induced peritonitis; experiment: Carrageenan-induced peritonitis; format: in vivo, ICR mice; settings: i.p. 1 h before carrageenan, 4 h
Method: To study the effect of 3d on carrageenan-induced peritonitis, ICR mice were injected with 1% carrageenan (250 μL) intraperitoneally (i.p.). Compound 3d (50 mg/kg), vehicle (10% Tween-80), dexamethasone (1 mg/kg) as a reference anti-inflammatory drug, and saline buffer were administered i.p. 1 h before peritonitis induction. The healthy uninflamed group (control) was injected i.p. by saline. Mice were sacrificed 4 h after carrageenan injection and their peritoneal cavities were washed with 2 mL of heparinized cold saline buffer to obtain peritoneal cells. The peritoneal exudates were collected and the total leukocyte counts were performed with a Neubauer chamber by optical microscopy after diluting the peritoneal fluid with Turk solution (1:20). To determine the differential leukocyte counts (total 100 cells), peritoneal cells were centrifuged and placed onto slides, stained with azur–eosin by Romanovsky–Giemsa and examined by optical microscopy. The results were expressed as the number of total leukocytes (×10^5 cells/mL) and the percentages of subpopulations of neutrophils, lymphocytes, and monocytes.

## CC(=O)O[C@H]1CC[C@@]2(C)C(CC[C@]3(C)C2C(=O)C=C2[C@@H]4C[C@@](C)(C(=O)O/N=C(/N)C(C)(C)C)CC[C@]4(C)CC[C@]23C)C1(C)C (some centres unmarked) [Compound 3d]
[1]; 50 mg/kg, gastric gavage
  histology of footpads: substantially reducing leukocyte infiltration in the dermis of the footpads
[1]; gastric gavage 1 h before carrageenan, 5 h after induction, 3d 50 mg/kg, indomethacin 20 mg/kg
  decrease of the weight of edema compared with vehicle-treated mice: 1.7 fold
[2]
  IC50: > 50 µM
[3]
  IC50: > 50 µM
[4]
  IC50: > 50 µM
[5]
  IC50: > 50 µM
[6]
  IC50: > 50 µM
[7]
  IC50: > 50 µM
[8]
  inhibition of NO synthesis compared with the control: up to 5.3 times
[9]
  cytotoxicity to RAW264.7 macrophages: did not reveal cytotoxicity
[10]; all tested cell lines
  cytotoxicity in all tested cell lines: nontoxic
[10]; median over all tested cell lines, read-out: median IC50
  IC50: > 50 µM
[10]; read-out: IC50 values with respect to all tested cell lines
  IC50: > 50 µM
[11]
  suppression of TNFα production compared to the IFN-γ-stimulated control: 2.2–9.0 times
[12]
  distribution of leukocyte subpopulations in peritoneal fluid: restore leukocyte subtype content to a healthy level
[12]; 3d 50 mg/kg, dexamethasone 1 mg/kg
  decrease of the total leukocyte number in peritoneal exudates: 2.7 fold
other
  melting point: 151.6 to 152.3 °C
